From ChEMBL document CHEMBL4334438, “Discovery of novel glycogen synthase kinase-3α inhibitors: Structure-based virtual screening, preliminary SAR and biological evaluation for treatment of acute myeloid leukemia” (Eur J Med Chem, 2019)

Key:
[1] = test system: Epidermal growth factor receptor (Homo sapiens), P00533 [T790M]; test: Inhibition of recombinant human EGFR T790M mutant (696 to end residues) assessed as residual activity at 1 uM using poly(Glu, Tyr) 4:1 as substrate at 40 mins in presence of [gamma-33ATP] by scintillation counting based radiometry assay relative to control
[2] = biological target: Casein kinase I isoform delta (Homo sapiens) (UniProt P48730); test: Inhibition of recombinant human CK1delta (1 to 294 residues) assessed as residual activity at 1 uM using KRRRALS(p)VASLPGL as substrate incubated for 40 mins in presence of [gamma-33ATP] by scintillation counting based radiometry assay relative to control
Chain of Casein kinase I isoform delta (Homo sapiens) (P48730 whole entry, looked up, the tested form may be a part, canonical isoform): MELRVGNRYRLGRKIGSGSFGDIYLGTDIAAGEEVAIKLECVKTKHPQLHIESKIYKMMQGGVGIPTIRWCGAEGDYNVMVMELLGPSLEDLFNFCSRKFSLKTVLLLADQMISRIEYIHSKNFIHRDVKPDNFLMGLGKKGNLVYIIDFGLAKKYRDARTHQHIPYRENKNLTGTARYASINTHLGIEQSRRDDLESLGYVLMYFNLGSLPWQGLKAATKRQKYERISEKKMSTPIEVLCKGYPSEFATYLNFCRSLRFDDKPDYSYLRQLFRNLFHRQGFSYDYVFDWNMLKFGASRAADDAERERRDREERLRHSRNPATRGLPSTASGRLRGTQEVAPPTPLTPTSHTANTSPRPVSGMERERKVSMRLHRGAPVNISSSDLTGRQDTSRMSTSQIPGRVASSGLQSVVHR

[3] = biological target: Transient receptor potential cation channel subfamily M member 7 (Homo sapiens) (UniProt Q96QT4); test: Inhibition of recombinant human CHAK1 (1180 to end residues) assessed as residual activity at 1 uM using myelin basic protein as substrate incubated for 40 mins in presence of [gamma-33ATP] by scintillation counting based radiometry assay relative to control
[4] = biological target: Ribosomal protein S6 kinase alpha-3 (Homo sapiens) (UniProt P51812); test: Inhibition of recombinant human Rsk2 (2 to end residues) assessed as residual activity at 1 uM using KKKNRTLSVA as substrate measured after 40 mins in presence of [gamma33P]ATP by scintillation counting method relative to control
[5] = biological target: Serine-protein kinase ATM (Homo sapiens) (UniProt Q13315); test: Inhibition of recombinant full-length human ATM at 1 uM assessed as residual activity at 1 uM using GST-cMyc-p53 as substrate measured after 40 mins by ELISA
[6] = biological target: Tyrosine-protein kinase Srms (Homo sapiens) (UniProt Q9H3Y6); test: Inhibition of human SRMS assessed as residual activity at 1 uM by radiometric method relative to control
[7] = biological target: Proto-oncogene tyrosine-protein kinase receptor Ret (Homo sapiens) (UniProt P07949); test: Inhibition of recombinant human Ret (658 to end residues) assessed as residual activity at 1 uM using KKKSPGEYVNIEFG as substrate measured after 40 mins in presence of [gamma33P]ATP by scintillation counting method relative to control
[8] = biological target: Serine/threonine-protein kinase/endoribonuclease IRE1 (Homo sapiens) (UniProt O75460); test: Inhibition of human IRE1 activated (465 to end residues) assessed as residual activity at 1 uM using myelin basic protein as substrate after 40 mins by [gamma-33ATP] radiometric assay relative to control
Chain of Serine/threonine-protein kinase/endoribonuclease IRE1 (Homo sapiens) (O75460 19-977 limits assumed): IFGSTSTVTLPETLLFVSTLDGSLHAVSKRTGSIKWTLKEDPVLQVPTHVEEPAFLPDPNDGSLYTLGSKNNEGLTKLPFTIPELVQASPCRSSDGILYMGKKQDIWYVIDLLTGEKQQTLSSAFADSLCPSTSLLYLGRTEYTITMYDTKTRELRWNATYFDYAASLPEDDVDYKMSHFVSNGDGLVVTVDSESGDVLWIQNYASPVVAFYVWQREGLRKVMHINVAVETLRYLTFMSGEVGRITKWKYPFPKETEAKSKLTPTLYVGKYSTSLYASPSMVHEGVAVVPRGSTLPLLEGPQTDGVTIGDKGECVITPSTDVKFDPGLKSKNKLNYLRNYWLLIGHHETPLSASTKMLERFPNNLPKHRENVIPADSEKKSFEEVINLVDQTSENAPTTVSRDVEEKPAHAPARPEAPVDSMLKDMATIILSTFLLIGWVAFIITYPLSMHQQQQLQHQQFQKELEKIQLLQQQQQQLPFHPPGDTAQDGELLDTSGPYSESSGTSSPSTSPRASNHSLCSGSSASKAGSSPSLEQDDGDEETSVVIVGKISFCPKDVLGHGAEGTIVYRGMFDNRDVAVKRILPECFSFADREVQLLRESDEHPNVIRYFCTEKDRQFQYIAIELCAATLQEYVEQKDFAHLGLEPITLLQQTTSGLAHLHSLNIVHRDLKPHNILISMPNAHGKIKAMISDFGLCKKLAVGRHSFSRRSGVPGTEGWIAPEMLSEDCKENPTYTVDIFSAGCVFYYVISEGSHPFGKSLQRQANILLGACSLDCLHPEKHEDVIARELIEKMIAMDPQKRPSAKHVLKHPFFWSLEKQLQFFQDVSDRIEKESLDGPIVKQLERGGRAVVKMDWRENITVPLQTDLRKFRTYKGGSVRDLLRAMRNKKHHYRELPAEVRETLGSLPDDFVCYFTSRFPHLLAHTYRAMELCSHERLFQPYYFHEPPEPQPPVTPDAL

[9] = biological target: Tyrosine-protein kinase JAK1 (Homo sapiens) (UniProt P23458); test: Inhibition of human JAK1 (866 to end residues) assessed as residual activity at 1 uM using GEEPLYWSFPAKKK as substrate after 40 mins by [gamma-33ATP] radiometric assay relative to control
[10] = test system: Serine/threonine-protein kinase TAO3 (Homo sapiens), Q9H2K8 [UNDEFINED MUTATION]; test: Inhibition of human TAO3 (1 to 411 residues) assessed as residual activity at 1 uM using myelin basic protein as substrate measured after 40 mins in presence of [gamma33P]ATP by scintillation counting method relative to control
Chain of Serine/threonine-protein kinase TAO3 (Homo sapiens), Q9H2K8 [UNDEFINED MUTATION] (Q9H2K8 whole entry, looked up, stated change not applied, the tested form may be a part): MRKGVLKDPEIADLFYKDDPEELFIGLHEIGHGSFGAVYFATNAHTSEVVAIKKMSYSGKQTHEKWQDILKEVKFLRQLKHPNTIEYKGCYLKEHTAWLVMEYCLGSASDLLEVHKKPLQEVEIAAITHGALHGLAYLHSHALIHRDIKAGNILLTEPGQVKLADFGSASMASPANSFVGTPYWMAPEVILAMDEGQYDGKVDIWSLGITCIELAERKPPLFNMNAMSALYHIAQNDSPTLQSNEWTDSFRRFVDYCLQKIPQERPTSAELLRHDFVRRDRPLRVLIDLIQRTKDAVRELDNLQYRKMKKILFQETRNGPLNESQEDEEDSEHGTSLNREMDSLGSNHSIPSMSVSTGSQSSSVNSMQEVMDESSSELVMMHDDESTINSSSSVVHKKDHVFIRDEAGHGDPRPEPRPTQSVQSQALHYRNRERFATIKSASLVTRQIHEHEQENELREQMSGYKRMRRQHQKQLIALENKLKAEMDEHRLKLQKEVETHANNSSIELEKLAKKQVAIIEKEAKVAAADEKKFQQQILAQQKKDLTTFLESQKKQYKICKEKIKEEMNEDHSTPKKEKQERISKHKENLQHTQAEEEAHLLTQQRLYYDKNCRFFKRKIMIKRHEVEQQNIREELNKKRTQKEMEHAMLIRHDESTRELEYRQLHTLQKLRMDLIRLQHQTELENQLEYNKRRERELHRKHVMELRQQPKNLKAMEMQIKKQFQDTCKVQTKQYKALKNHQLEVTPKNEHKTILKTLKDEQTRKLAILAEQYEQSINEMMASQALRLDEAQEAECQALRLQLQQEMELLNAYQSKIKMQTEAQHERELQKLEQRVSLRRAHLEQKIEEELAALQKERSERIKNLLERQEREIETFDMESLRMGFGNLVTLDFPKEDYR

[11] = biological target: MAP/microtubule affinity-regulating kinase 4 (Homo sapiens) (UniProt Q96L34); test: Inhibition of recombinant full length human MARK4 assessed as residual activity at 1 uM using KKKVSRSGLYRSPSMPENLNRPR as substrate incubated for 40 mins in presence of [gamma-33ATP by scintillation counting based radiometry assay relative to control
[12] = biological target: Serine/threonine-protein kinase Sgk3 (Homo sapiens) (UniProt Q96BR1); test: Inhibition of recombinant human SGK3 (119 to end residues) assessed as residual activity at 1 uM using GRPRTSSFAEGKK as substrate measured after 40 mins in presence of [gamma33P]ATP by scintillation counting method relative to control
[13] = biological target: NT-3 growth factor receptor (Homo sapiens) (UniProt Q16288); test: Inhibition of human TrkC (510 to end residues) assessed as residual activity at 1 uM using GEEPLYWSFPAKKK as substrate measured after 40 mins in presence of [gamma33P]ATP by scintillation counting method relative to control
Chain of NT-3 growth factor receptor (Homo sapiens) (Q16288 32-839 limits assumed): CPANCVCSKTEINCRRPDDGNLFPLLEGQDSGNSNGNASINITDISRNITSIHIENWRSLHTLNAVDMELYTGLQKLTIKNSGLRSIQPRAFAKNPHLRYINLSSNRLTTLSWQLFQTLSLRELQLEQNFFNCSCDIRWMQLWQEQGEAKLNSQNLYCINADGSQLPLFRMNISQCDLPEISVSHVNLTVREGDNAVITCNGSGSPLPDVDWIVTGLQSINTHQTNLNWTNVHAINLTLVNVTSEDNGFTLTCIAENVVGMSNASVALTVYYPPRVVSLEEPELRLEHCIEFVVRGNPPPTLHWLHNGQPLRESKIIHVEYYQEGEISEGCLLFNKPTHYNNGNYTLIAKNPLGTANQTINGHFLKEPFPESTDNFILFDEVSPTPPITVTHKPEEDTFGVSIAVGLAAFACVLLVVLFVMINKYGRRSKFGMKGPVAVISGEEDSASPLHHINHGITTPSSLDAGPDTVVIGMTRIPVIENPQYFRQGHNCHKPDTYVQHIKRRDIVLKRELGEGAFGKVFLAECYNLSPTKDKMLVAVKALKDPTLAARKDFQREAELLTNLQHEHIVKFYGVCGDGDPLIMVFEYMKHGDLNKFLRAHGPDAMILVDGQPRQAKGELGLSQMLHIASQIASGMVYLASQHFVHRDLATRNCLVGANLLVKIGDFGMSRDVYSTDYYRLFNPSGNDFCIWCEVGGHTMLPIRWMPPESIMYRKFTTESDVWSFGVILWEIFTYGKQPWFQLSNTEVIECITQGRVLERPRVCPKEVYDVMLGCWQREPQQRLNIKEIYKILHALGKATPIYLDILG

[14] = biological target: Phosphatidylinositol 3-kinase C2 domain-containing subunit gamma (Homo sapiens) (UniProt O75747); test: Inhibition of recombinant human PI3KC2gamma (468 to 1203 residues) at 1 uM assessed as residual activity at 1 uM using phosphatidylinositol as substrate measured after 40 mins by HTRF assay
[15] = biological target: Activin receptor type-2A (Homo sapiens) (UniProt P27037); test: Inhibition of human ACTR2A (162 to end residues) assessed as residual activity at 1 uM using casein as substrate incubated for 120 mins in presence of [gamma-33ATP] by scintillation counting based radiometry assay relative to control
Chain of Activin receptor type-2A (Homo sapiens) (P27037 whole entry, the tested form may be a part): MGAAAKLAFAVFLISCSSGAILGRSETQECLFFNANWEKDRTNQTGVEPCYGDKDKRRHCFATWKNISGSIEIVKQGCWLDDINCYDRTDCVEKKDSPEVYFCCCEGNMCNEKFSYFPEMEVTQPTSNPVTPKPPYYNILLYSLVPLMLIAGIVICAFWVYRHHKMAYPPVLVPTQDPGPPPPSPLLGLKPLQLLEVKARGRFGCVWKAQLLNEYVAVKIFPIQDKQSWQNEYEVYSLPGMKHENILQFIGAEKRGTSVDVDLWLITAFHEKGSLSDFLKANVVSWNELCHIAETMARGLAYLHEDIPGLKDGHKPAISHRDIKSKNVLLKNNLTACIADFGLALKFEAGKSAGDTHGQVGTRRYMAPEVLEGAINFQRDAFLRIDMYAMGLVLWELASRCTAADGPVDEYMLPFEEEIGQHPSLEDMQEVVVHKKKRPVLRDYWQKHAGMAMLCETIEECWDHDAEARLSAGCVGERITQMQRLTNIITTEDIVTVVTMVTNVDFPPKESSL

[16] = biological target: Serine/threonine-protein kinase WNK3 (Homo sapiens) (UniProt Q9BYP7); test: Inhibition of human WNK3 (1 to 434 residues) assessed as residual activity at 1 uM using myelin basic protein as substrate measured after 40 mins in presence of [gamma33P]ATP by scintillation counting method relative to control
[17] = test system: Calcium/calmodulin-dependent protein kinase kinase 2 (Homo sapiens), Q96RR4 [T85S]; test: Inhibition of recombinant full length human CaMKK2 T85S mutant assessed as residual activity at 1 uM […] incubated for 40 mins in presence of [gamma-33ATP] by scintillation counting based radiometry assay relative to control
Chain of Calcium/calmodulin-dependent protein kinase kinase 2 (Homo sapiens), Q96RR4 [T85S] (Q96RR4 whole entry T85S, the tested form may be a part): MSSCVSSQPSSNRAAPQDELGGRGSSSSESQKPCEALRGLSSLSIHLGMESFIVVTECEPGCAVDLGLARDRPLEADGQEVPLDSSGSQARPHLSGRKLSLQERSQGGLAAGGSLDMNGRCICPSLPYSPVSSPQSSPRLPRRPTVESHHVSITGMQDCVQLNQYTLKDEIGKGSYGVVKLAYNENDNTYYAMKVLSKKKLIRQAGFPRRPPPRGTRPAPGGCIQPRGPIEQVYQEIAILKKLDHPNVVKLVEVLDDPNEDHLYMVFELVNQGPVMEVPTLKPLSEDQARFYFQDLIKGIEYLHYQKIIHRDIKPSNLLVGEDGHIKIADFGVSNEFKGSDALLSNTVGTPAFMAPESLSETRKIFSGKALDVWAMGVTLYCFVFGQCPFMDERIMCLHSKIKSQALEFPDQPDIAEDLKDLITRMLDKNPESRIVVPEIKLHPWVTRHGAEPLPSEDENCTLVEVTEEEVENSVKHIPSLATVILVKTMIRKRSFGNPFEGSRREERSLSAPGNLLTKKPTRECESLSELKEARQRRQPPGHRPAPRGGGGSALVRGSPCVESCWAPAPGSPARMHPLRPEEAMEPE

[18] = biological target: Ephrin type-A receptor 8 (Homo sapiens) (UniProt P29322); test: Inhibition of recombinant human EphA8 (615 to 911 residues) assessed as residual activity at 1 uM using KTFCGTPEYLAPEVRREPRILSEEEQEMFRDFDYIADWC as substrate at 40 mins in presence of [gamma-33ATP] by scintillation counting based radiometry assay relative to control
[19] = biological target: Mitogen-activated protein kinase 12 (Homo sapiens) (UniProt P53778); test: Inhibition of recombinant human full length SAPK3 assessed as residual activity at 1 uM using myelin basic protein as substrate measured after 40 mins in presence of [gamma33P]ATP by scintillation counting method relative to control
[20] = biological target: Glycogen synthase kinase-3 alpha (Homo sapiens, UniProt P49840); test: Inhibition of human GSK-3alpha S449A mutant (2 to end residues) using phospho GS2 peptide as substrate after 40 mins in presence of [gamma-33ATP] by scintillation counting method
[21] = biological target: cAMP-dependent protein kinase catalytic subunit PRKX (Homo sapiens) (UniProt P51817); test: Inhibition of recombinant human full length PrKX assessed as residual activity at 1 uM using RRRLSFAEPG as substrate measured after 40 mins in presence of [gamma33P]ATP by scintillation counting method relative to control
[22] = biological target: Serine/threonine-protein kinase 33 (Homo sapiens) (UniProt Q9BYT3); test: Inhibition of recombinant full-length human STK33 at 1 uM assessed as residual activity at 1 uM using myelin basic protein as substrate measured after 40 mins in presence of [gamma33P]ATP by scintillation counting method relative to control
Chain of Serine/threonine-protein kinase 33 (Homo sapiens) (Q9BYT3 whole entry, looked up): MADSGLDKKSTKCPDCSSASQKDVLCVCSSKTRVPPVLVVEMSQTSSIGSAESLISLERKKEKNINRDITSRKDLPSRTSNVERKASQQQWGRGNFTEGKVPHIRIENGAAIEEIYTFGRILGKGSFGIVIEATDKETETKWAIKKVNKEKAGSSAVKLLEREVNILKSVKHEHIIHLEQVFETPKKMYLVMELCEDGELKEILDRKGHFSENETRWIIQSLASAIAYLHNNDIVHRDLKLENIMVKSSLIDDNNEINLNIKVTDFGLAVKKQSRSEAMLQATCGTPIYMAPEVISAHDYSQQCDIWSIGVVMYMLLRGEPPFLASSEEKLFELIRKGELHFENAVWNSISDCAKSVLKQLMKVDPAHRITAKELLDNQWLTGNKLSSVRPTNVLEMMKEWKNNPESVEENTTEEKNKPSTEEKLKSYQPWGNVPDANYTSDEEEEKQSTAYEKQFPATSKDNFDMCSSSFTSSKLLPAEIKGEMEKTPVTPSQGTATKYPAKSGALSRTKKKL

Row | SMILES | Activity [1] | Activity [2] | Activity [3] | Activity [4] | Activity [5] | Activity [6] | Activity [7] | Activity [8] | Activity [9] | Activity [10] | Activity [11] | Activity [12] | Activity [13] | Activity [14] | Activity [15] | Activity [16] | Activity [17] | Activity [18] | Activity [19] | IC50 [20] | also measured
1 | C=CCOC(=O)c1cc(-c2ccc(/C=C3/NC(=S)NC3=O)o2)ccc1Cl | 90% | 94% | 99% | 112% | 100% | 114% | 102% | 91% | 106% | 87% | 113% | 96% | 98% | 77% | 100% | 102% | 94% | 99% | 94% | 33 nM | Activity [21]: 107%; Activity [22]: 96%
2 | N=C1NC(=O)/C(=C\c2ccc(-c3cccc([N+](=O)[O-])c3)o2)S1 | 101% | 101% | 104% | 85% | 102% | 95% | 92% | 79% | 96% | 81% | 92% | 109% | 104% | 90% | 99% | 99% | 92% | 94% | 97% | 49 nM | Activity [21]: 96%; Activity [22]: 88%
